Data as given in patent US20240358021A1, “COMPOSITION COMPRISING POTASSIUM BICARBONATE AND USE THEREOF FOR TREATING AND/OR PROTECTING CROPS” (SCEA DU CHATEAU MONTROSE, priority 2021, published 2024).

Tests used:
[1] = tested on: downy mildew (P. viticola) strains PV221, PV413-1, PV1538-1; test: In vitro efficacy test on vine leaf discs (Example 2); assay type: cell-based, Plasmopara viticola; settings: mean over downy mildew strains; Example 2 method
[2] = tested on: downy mildew, powdery mildew and vine rot

O=C([O-])O.[K+] [KHCO3, potassium bicarbonate]
Mean IC50 (CI 50) [1]: 1 g/L | Mean MIC (CMI) [1]: 5.6 g/L | effect on phytopathogens, in words [2]: significant

O=C([O-])O.[Na+] [NaHCO3, sodium bicarbonate]
Mean IC50 (CI 50) [1]: 1.85 g/L | Mean MIC (CMI) [1]: 10 g/L
